The record followed here is US20080221096A1, “Pyrido[3' ,2':4,5]Furo[3,2-d]Pyrimidine Derivatives” (priority 2005, published 2008).

For this test, the system named is PDE4. As to the kind of experiment: PDE4 Assay Procedure ([3H]-cAMP SPA). In kind it is biochemical. As to conditions: 15 nM [3H]-cAMP, 1 hour at room temperature, SPA beads.
Description: Compounds to be tested were resuspended in DMSO at a stock concentration of 1 mM. […] These dilutions were done in 96-well plates. In some cases, plates containing diluted compounds were frozen before being assayed. In these cases, the plates were thawed at room temperature and stirred for 15 minutes.
Ten microliters of the diluted compounds were poured into a “low binding” assay plate. […] The reaction was initiated by adding ten microliters of a solution containing PDE4. The plate was then incubated under stirring for 1 hour at room temperature. After incubation the reaction was stopped with 50 microlitres of SPA beads, and the reaction was allowed to incubate for another 20 minutes at room temperature before measuring radioactivity using standard instrumentation.
The reaction mixture was prepared by adding 90 ml of H2O to 10 ml of 10× assay buffer (500 mM Tris pH 7.5, 83 mM MgCl2, 17 mM EGTA), and 40 microlitres 1 μCi/μL [3H]-cAMP. SPA beads solution was prepared by adding 500 mg to 28 ml H2O for a final concentration of 20 mg/ml beads and 18 mM zinc sulphate.
Take `CC1(C)Cc2c(c(N3CCOCC3)nc3oc4c(N(CCN5CCOCC5)Cc5cccnc5)ncnc4c23)CO1` [Example 14, 2,2-Dimethyl-5-morpholin-4-yl-N-(2-morpholin-4-ylethyl)-N-(pyridin-3-ylmethyl)-1,4-dihydro-2H-pyrano[4″,3″:4′,5′]pyrido[3′,2′:4,5]furo[3,2-d]pyrimidin-8-amine]: the IC50 (commonly the concentration needed to halve the response being measured) worked out at 10 nM.
The value for `CCNc1nc2oc3c(NCCN4CCOCC4)ncnc3c2c2c1CCC(C)(C)C2` [Example 31, N^5-Ethyl-2,2-dimethyl-N^8-(2-morpholin-4-ylethyl)-1,2,3,4-tetrahydropyrimido[4′,5′:4,5]furo[2,3-c]isoquinoline-5,8-diamine] was 2 nM; that for `CC1(C)CCc2c(N3CCOCC3)nc3oc4c(NCCN5CCOCC5)ncnc4c3c2C1` [Example 23, 2,2-Dimethyl-5-morpholin-4-yl-N-(2-morpholin-4-ylethyl)-1,2,3,4-tetrahydropyrimido[4′,5′:4,5]furo[2,3-c]isoquinolin-8-amine] was 8.9 nM; that for `CC1(C)CCc2c(NC3CCC3)nc3oc4c(NCCN5CCOCC5)ncnc4c3c2C1` [Example 46, N^5-Cyclobutyl-2,2-dimethyl-N^8-(2-morpholin-4-ylethyl)-1,2,3,4-tetrahydropyrimido [4′,5′:4,5]furo[2,3-c]isoquinoline-5,8-diamine] was 0.7 nM.
The value for `CCNc1nc2oc3c(NCCCN4CCCC4=O)ncnc3c2c2c1CCC(C)(C)C2` [Example 35, 1-(3-{[5-(Ethylamino)-2,2-dimethyl-1,2,3,4-tetrahydropyrimido[4′,5′:4,5]furo[2,3-c]isoquinolin-8-yl]amino}propyl)pyrrolidin-2-one] was 1.6 nM.
With `CC1(C)CCc2c(N3CCOCC3)nc3oc4c(N(CCO)CCN5CCOCC5)ncnc4c3c2C1` [Example 20, 2-[(2,2-Dimethyl-5-morpholin-4-yl-1,2,3,4-tetrahydropyrimido[4′,5′:4,5]furo[2,3-c]isoquinolin-8-yl)(2-morpholin-4-ylethyl)amino]ethanol] the figure was 0.8 nM.
